Measurements as given in ChEMBL document CHEMBL1201862, “PubChem BioAssay data set” (2004).
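Each compound was tested at five concentrations against cells in 96-well plates for 48 hours. GI50: concentration for 50% inhibition of growth.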 Calls of active or inactive are those of the source. No stated cut-off is given here; in the data, active = GI50 up to about 1.1 µM and inactive = higher.

What was measured:
Test in all cases: NCI anticancer screen, dose series, 48 h
[1] = system: SNB-75
[2] = system: SF-539
[3] = system: OVCAR-8
[4] = system: SK-OV-3
[5] = system: HT-29
[6] = system: NCI-H23
[7] = system: K562
[8] = system: OVCAR-3
[9] = system: SF-295
[10] = system: OVCAR-4
[11] = system: SK-MEL-28
[12] = system: M14
[13] = system: NCI-H226
[14] = system: KM12
[15] = system: U-251
[16] = system: IGROV-1
[17] = system: HOP-92
[18] = system: OVCAR-5
[19] = system: EKVX
[20] = system: MCF7

Measured: GI50

CC1(C)OP23(NC(=O)OC2(C(F)(F)F)c2ccccc2O3)OC1(C)C (centres undefined)
inactive: [1] > 100 µM | [2] > 100 µM | [3] > 100 µM | [4] > 100 µM | [5] > 100 µM | [6] > 100 µM | [7] > 100 µM | [8] > 100 µM | [9] > 100 µM | [10] > 100 µM | [11] > 100 µM | [12] > 100 µM | [13] > 100 µM | [14] > 100 µM | [15] > 100 µM

C[Si](C)(C)/C=C/CN1C(=O)CCC1=O
inactive: [1] 83.2 µM | [16] > 100 µM | [17] > 100 µM | [2] > 100 µM | [4] > 100 µM | [5] > 100 µM | [6] > 100 µM | [7] > 100 µM | [8] > 100 µM | [18] > 100 µM | [19] > 100 µM | [11] > 100 µM | [12] > 100 µM | [14] > 100 µM | [15] > 100 µM

COc1cc(C2C(C(=O)O)=C(CO)Oc3cc4c(cc32)OCO4)cc(OC)c1O (centres undefined)
inactive: [1] > 100 µM | [16] > 100 µM | [17] > 100 µM | [2] > 100 µM | [3] > 100 µM | [4] > 100 µM | [5] > 100 µM | [7] > 100 µM | [8] > 100 µM | [19] > 100 µM | [9] > 100 µM | [10] > 100 µM | [11] > 100 µM | [12] > 100 µM | [15] > 100 µM

CC1(C)CC(=O)C2=C(C1)OC1=C(CC(C)(C)CC1=O)C2c1ccccc1[N+](=O)[O-] (centres undefined)
inactive: [1] > 100 µM | [16] > 100 µM | [17] > 100 µM | [2] > 100 µM | [4] > 100 µM | [5] > 100 µM | [6] > 100 µM | [7] > 100 µM | [8] > 100 µM | [18] > 100 µM | [19] > 100 µM | [9] > 100 µM | [10] > 100 µM | [11] > 100 µM | [12] > 100 µM | [13] > 100 µM | [14] > 100 µM | [15] > 100 µM

O=c1[nH]c(=O)n(C2CC(O)C(CO)O2)cc1C(OCC(F)(F)F)OCC(F)(F)F (centres undefined)
inactive: [1] > 100 µM | [16] > 100 µM | [17] > 100 µM | [2] > 100 µM | [3] > 100 µM | [4] > 100 µM | [5] > 100 µM | [6] > 100 µM | [7] 53.3 µM | [8] > 100 µM | [18] > 100 µM | [19] > 100 µM | [9] > 100 µM | [10] > 100 µM | [11] > 100 µM | [12] > 100 µM | [14] > 100 µM | [15] > 100 µM

CN(C)C(=S)/N=c1\ssc(=S)n1C
inactive: [1] > 100 µM | [16] > 100 µM | [17] > 100 µM | [2] > 100 µM | [3] > 100 µM | [4] > 100 µM | [5] > 100 µM | [6] > 100 µM | [7] > 100 µM | [18] > 100 µM | [19] > 100 µM | [9] > 100 µM | [10] > 100 µM | [11] > 100 µM | [12] > 100 µM | [13] > 100 µM | [14] > 100 µM | [15] > 100 µM

CC(=O)OC(OC(C)=O)n1cc(C=O)c2ccccc21
inactive: [1] > 10 µM | [16] > 10 µM | [3] > 100 µM | [4] > 100 µM | [5] > 100 µM | [6] > 100 µM | [7] > 100 µM | [8] > 100 µM | [18] > 100 µM | [9] > 100 µM | [20] 25.9 µM | [10] > 100 µM | [11] > 100 µM | [12] > 100 µM | [13] > 100 µM | [15] > 100 µM

COc1ccc2nc3cc(Cl)ccc3c(Sc3ccc(N)cc3)c2c1
inactive: [1] 11 µM | [16] 16.1 µM | [17] 24.4 µM | [2] 13.9 µM | [3] 11 µM | [4] 4.37 µM | [6] 14.1 µM | [7] 3.42 µM | [8] 9.57 µM | [18] 19.8 µM | [19] 11.7 µM | [9] 16.7 µM | [10] 15.5 µM | [11] 14.9 µM | [12] 9.06 µM | [13] 18.5 µM | [14] 6.76 µM | [15] 10.5 µM

N#C/N=N/c1cc(Cl)c(/N=N/C#N)cc1Cl
inactive: [1] 51.9 µM | [16] > 100 µM | [17] > 100 µM | [2] > 100 µM | [3] > 100 µM | [4] > 100 µM | [5] > 100 µM | [6] > 100 µM | [7] 27.1 µM | [8] > 100 µM | [18] > 100 µM | [19] > 100 µM | [9] > 100 µM | [10] 47 µM | [11] > 100 µM | [12] > 100 µM | [13] > 100 µM | [14] > 100 µM | [15] > 100 µM

O=C(O)C12CCCCC1CCCC2 (centres undefined)
inactive: [1] 98.2 µM | [16] > 100 µM | [17] > 100 µM | [2] > 100 µM | [3] > 100 µM | [4] > 100 µM | [5] > 100 µM | [6] > 100 µM | [7] > 100 µM | [8] > 100 µM | [18] > 100 µM | [19] > 100 µM | [9] > 100 µM | [10] > 100 µM | [11] > 100 µM | [12] > 100 µM | [13] > 100 µM | [14] > 100 µM | [15] > 100 µM

COc1c(Br)cc(CC(N)=O)c(O)c1Br
inactive: [1] > 100 µM | [16] > 100 µM | [17] > 100 µM | [2] > 100 µM | [3] > 100 µM | [4] > 100 µM | [5] > 100 µM | [6] > 100 µM | [7] > 100 µM | [8] > 100 µM | [18] > 100 µM | [19] > 100 µM | [9] > 100 µM | [10] > 100 µM | [11] > 100 µM | [13] > 100 µM | [14] > 100 µM | [15] > 100 µM
